From patent US20210267989A1, “Novel Compounds for the Treatment, Alleviation or Prevention of Disorders Associated with Tau Aggregates” (AC Immune SA, priority 2018, published 2021)

Target: T1, recombinant full-length (fl)Tau aggregates (longest isoform of human Tau, 2N4R; 441 amino acids) (Homo sapiens, UniProt P10636)
T1 construct: 35 μM of recombinant full-length (fl)Tau in PBS were aggregated for 24 hours; made in house; host or cells: bacteria
Assay: Full-length Tau (flTau) disaggregation assay by Thioflavin T (ThT)
Format: biochemical
Details: ThT fluorescence; 2 μM flTau aggregates, 30 minutes at RT
Protocol: Full-Length Tau (flTau) Disaggregation Assay by Thioflavin T (ThT)
The longest isoform of human Tau (2N4R; 441 amino acids) was expressed in bacteria and purified. For the Tau disaggregation assay by ThT, 35 μM of recombinant full-length (fl)Tau in PBS were aggregated for 24 hours at 37° C. in presence of 50 μM of heparin (Sigma-Aldrich) and 10 mM of DTT (Sigma-Aldrich) under shaking at 750 RPM. Compounds were dissolved in anhydrous dimethyl sulfoxide (DMSO, Sigma-Aldrich) to reach a concentration of 10 mM. flTau aggregates and serial dilutions of compounds were mixed together in PBS (volume 50 μL) to a final concentration of 2 μM of flTau aggregates and from 160 to 0.04 μM of compounds. The mixture was incubated for 30 minutes at room temperature (RT), then 40 μL of this mixture were transferred into a black 384-well plate assay (Perkin-Elmer) and mixed with 10 μL of 100 μM ThT in 250 mM glycine (both from Sigma-Aldrich) in PBS. Fluorescence (relative fluorescence units; RFU) was measured in monoplicate or duplicate on a Tecan reader (excitation: 440 nm; emission: 485 nm). Percentage of flTau disaggregation was then calculated and the half maximal effective concentration (EC50) was determined using GraphPad Prism version 5 (GraphPad Software) assuming a one-binding site fitting model.

T1 sequence (P10636 1-441 isoform P10636-8): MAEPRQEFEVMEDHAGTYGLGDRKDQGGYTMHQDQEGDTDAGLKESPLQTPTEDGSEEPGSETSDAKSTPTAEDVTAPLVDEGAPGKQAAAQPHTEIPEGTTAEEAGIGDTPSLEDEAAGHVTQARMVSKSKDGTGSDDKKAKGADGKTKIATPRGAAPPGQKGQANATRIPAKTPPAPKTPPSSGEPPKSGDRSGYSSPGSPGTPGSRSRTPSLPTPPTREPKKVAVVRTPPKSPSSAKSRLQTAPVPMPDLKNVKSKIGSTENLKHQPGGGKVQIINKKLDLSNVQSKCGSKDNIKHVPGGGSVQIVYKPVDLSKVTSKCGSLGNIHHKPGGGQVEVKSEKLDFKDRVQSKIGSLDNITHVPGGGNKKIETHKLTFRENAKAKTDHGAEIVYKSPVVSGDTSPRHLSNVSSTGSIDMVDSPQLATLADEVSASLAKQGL

| Structure (SMILES) | EC50 [µM] |
| --- | --- |
| Cn1c2c(c3ccccc31)CCN(c1ccc3nc(N4CCOCC4)sc3c1)C2 [Example 1] | < 10 |
| CN(C)c1nc2ccc(N3CCc4c(n(C)c5ccccc45)C3)cc2s1 [Example 2] | < 10 |

Target: T2, Tau K18 fragment aggregates (amino acids 244 to 372 of human Tau441) (Homo sapiens, UniProt P10636)
T2 construct: encompassing amino acids 244 to 372 of the longest isoform (2N4R) of human Tau441; host or cells: bacteria
Assay: Tau K18 disaggregation assay by ThT
Format: biochemical
Details: ThT fluorescence; 2 μM K18 aggregates, 30 minutes at RT
Protocol: Tau K18 Disaggregation Assay by ThT
The Tau K18 fragment, encompassing amino acids 244 to 372 of the longest isoform (2N4R) of human Tau441, was expressed in bacteria and purified or bought from SignalChem. For the K18 disaggregation assay by ThT, 35 μM of recombinant K18 in PBS were aggregated for 24 hours at 37° C. in presence of 50 μM of heparin (Sigma-Aldrich) and 10 mM of DTT (Sigma-Aldrich) under shaking at 750 RPM. Compounds were dissolved in anhydrous dimethyl sulfoxide (DMSO, Sigma-Aldrich) to reach a concentration of 10 mM. K18 aggregates and serial dilutions of compounds were mixed together in PBS (volume 50 μL) to a final concentration of 2 μM of K18 aggregates and from 160 to 0.04 μM of compounds. The mixture was incubated for 30 minutes at room temperature (RT), then 40 μL of this mixture were transferred into a black 384-well plate assay (Perkin-Elmer) and mixed with 10 μL of 100 μM ThT in 250 mM glycine (both from Sigma-Aldrich) in PBS. Fluorescence (relative fluorescence units; RFU) was measured in monoplicate or duplicate on a Tecan reader (excitation: 440 nm; emission: 485 nm). Percentage of K18 disaggregation was then calculated and half maximal effective concentration (E050) was determined using GraphPad Prism version 5 (GraphPad Software) assuming a one-binding site fitting model.

T2 sequence (P10636 561-689): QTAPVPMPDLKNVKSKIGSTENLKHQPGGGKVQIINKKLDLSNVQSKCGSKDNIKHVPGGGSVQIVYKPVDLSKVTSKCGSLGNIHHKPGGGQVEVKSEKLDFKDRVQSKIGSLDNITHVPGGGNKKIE

| Structure (SMILES) | EC50 [µM] |
| --- | --- |
| COc1ccc2c(c1)c1c(n2C)CN(c2ccc3nc(N4CCOCC4)oc3c2)CC1 [Example 20] | < 10 |
| Fc1ccc2[nH]c3c(c2c1)CCN(c1ccc2sc(N4CCOCC4)nc2c1)C3 [Example 22] | < 10 |
| Fc1ccc2[nH]c3c(c2c1)CCN(c1ccc2nc(N4CCOCC4)sc2c1)C3 [Example 23] | < 10 |
| Fc1ccc2[nH]c3c(c2c1)CCN(c1ccc2nc(N4CCOCC4)oc2c1)C3 [Example 24] | < 10 |
| Fc1ccc2[nH]c3c(c2c1)CCN(c1ccc2oc(N4CCOCC4)nc2c1)C3 [Example 25] | < 10 |
| CN(C)c1nc2ccc(N3CCc4c([nH]c5ccc(F)cc45)C3)cc2s1 [Example 26] | < 10 |
| CN(C)c1nc2ccc(N3CCc4c([nH]c5ccc(F)cc45)C3)cc2o1 [Example 27] | < 10 |
| CN(C)c1nc2cc(N3CCc4c([nH]c5ccc(F)cc45)C3)ccc2o1 [Example 28] | < 10 |
| CN(C)c1nc2ccc(N3CCc4c(n(C)c5ccc(F)cc45)C3)cc2s1 [Example 29] | < 10 |
| COc1ccc2[nH]c3c(c2c1)CCN(c1ccc2sc(N4CCOCC4)nc2c1)C3 [Example 30] | < 10 |
| COc1ccc2[nH]c3c(c2c1)CCN(c1ccc2nc(N4CCOCC4)sc2c1)C3 [Example 31] | < 10 |
| COc1ccc2[nH]c3c(c2c1)CCN(c1ccc2nc(N4CCOCC4)oc2c1)C3 [Example 32] | < 10 |
| COc1ccc2[nH]c3c(c2c1)CCN(c1ccc2oc(N4CCOCC4)nc2c1)C3 [Example 33] | 10 to 25 |
| COc1ccc2[nH]c3c(c2c1)CCN(c1ccc2sc(N(C)C)nc2c1)C3 [Example 34] | < 10 |
| COc1ccc2[nH]c3c(c2c1)CCN(c1ccc2nc(N(C)C)sc2c1)C3 [Example 35] | < 10 |
| COc1ccc2[nH]c3c(c2c1)CCN(c1ccc2nc(N(C)C)oc2c1)C3 [Example 36] | < 10 |
| c1ccc2c3c([nH]c2c1)CN(c1ccc2sc(N4CCOCC4)nc2c1)CC3 [Example 37] | 10 to 25 |
| COc1ccc2[nH]c3c(c2c1)CCN(c1ccc2oc(N(C)C)nc2c1)C3 [Example 39] | < 10 |
| Fc1ccc2[nH]c3c(c2c1)CCN(c1ccc(N2CCOCC2)nc1)C3 [Example 40] | < 10 |
| Fc1ccc2[nH]c3c(c2c1)CCN(c1ccc(N2CCOCC2)cn1)C3 [Example 41] | < 10 |
| CN(C)c1nc2cc(N3CCc4c([nH]c5ccc(F)cc45)C3)ccc2s1 [Example 42] | < 10 |
| Fc1ccc2[nH]c3c(c2c1)CCN(c1cnc(N2CCOCC2)c(F)c1)C3 [Example 48] | < 10 |

| Structure (SMILES) | EC50 [µM] |
| --- | --- |
| Fc1ccc2[nH]c3c(c2c1)CCN(c1cc2sc(N4CCOCC4)nc2cn1)C3 [Example 49] | < 10 |
| Fc1ccc2[nH]c3c(c2c1)CCN(c1cncc(N2CCOCC2)c1)C3 [Example 50] | 10 to 25 |
| Fc1ccc2c3c([nH]c2c1)CN(c1cnc(N2CCOCC2)c(F)c1)CC3 [Example 51] | 10 to 25 |
| Fc1ccc2c3c([nH]c2c1)CN(c1ccc(N2CCOCC2)c(F)c1)CC3 [Example 52] | < 10 |
| Fc1ccc2[nH]c3c(c2c1)CCN(c1cnc2nc(N4CCOCC4)sc2c1)C3 [Example 53] | < 10 |
| Fc1ccc2[nH]c3c(c2c1)CCN(c1ccc2nc(N4CCOCC4)sc2n1)C3 [Example 54] | < 10 |
| Fc1ccc2[nH]c3c(c2c1)CCN(c1ccc(N2CCOCC2)cc1)C3 [Example 55] | < 10 |
| Fc1ccc2[nH]c3c(c2c1)CCN(c1ccc(N2CCOCC2)cc1F)C3 [Example 56] | < 10 |
| Fc1ccc2c3c([nH]c2c1)CN(c1ccc(N2CCOCC2)cc1)CC3 [Example 57] | < 10 |
| Fc1cc(N2CCc3c([nH]c4ccccc34)C2)ccc1N1CCOCC1 [Example 58] | < 10 |
| c1ccc2c3c([nH]c2c1)CN(c1ccc(N2CCOCC2)cc1)CC3 [Example 59] | < 10 |
| CN1CCN(c2ccc(N3CCc4c([nH]c5cc(F)ccc45)C3)cc2)CC1 [Example 62] | 10 to 25 |
| Cn1c2c(c3ccccc31)CCN(c1nc3ccc(N4CCOCC4)cc3o1)C2 [Example 67] | < 10 |
| c1ccc2c3c([nH]c2c1)CN(c1ccc(N2CCOCC2)nn1)CC3 [Example 68] | < 10 |
| c1ccc2c3c([nH]c2c1)CN(c1ccc(N2C4COCC2C4)nc1)CC3 [Example 70] | < 10 |
| C[C@@H]1CN(c2ccc(N3CCc4c([nH]c5ccccc45)C3)cn2)C[C@H](C)O1 [Example 76] | < 10 |
| c1ccc2c3c([nH]c2c1)CN(c1ccc(N2CCOC4(CCC4)C2)nc1)CC3 [Example 77] | < 10 |
| C[C@@H]1COCCN1c1ccc(N2CCc3c([nH]c4ccccc34)C2)cn1 [Example 78] | < 10 |
| c1ccc2c3c([nH]c2c1)CN(c1ccc(N2C[C@@H]4C[C@H]2CO4)nc1)CC3 [Example 86] | < 10 |
| Fc1cccc2[nH]c3c(c12)CCN(c1ccc(N2CCOCC2)nc1)C3 [Example 87] | < 10 |
| Fc1cccc2[nH]c3c(c12)CCN(c1ccc(N2CCOCC2)cn1)C3 [Example 88] | < 10 |
| Fc1cccc2[nH]c3c(c12)CCN(c1ccc2oc(N4CCOCC4)nc2c1)C3 [Example 89] | < 10 |

| Structure (SMILES) | EC50 [µM] |
| --- | --- |
| Cn1c2c(c3c(F)cccc31)CCN(c1ccc3oc(N4CCOCC4)nc3c1)C2 [Example 90] | < 10 |
| Cn1c2c(c3cccc(F)c31)CCN(c1ccc3oc(N4CCOCC4)nc3c1)C2 [Example 91] | < 10 |
| Fc1cccc2c3c([nH]c12)CN(c1ccc(N2CCOCC2)nc1)CC3 [Example 92] | < 10 |
| Fc1cccc2c3c([nH]c12)CN(c1ccc2oc(N4CCOCC4)nc2c1)CC3 [Example 93] | < 10 |
| CN1CCN(c2cnc(N3CCc4c(n(C)c5ccccc45)C3)cn2)CC1 [Example 94] | 10 to 25 |
| CN1CCN(c2ccc(N3CCc4c(n(C)c5ccccc45)C3)cn2)CC1 [Example 95] | 25 to 50 |
| Cn1c2c(c3ccccc31)CCN(c1ccc(N3CCOCC3)nn1)C2 [Example 96] | < 10 |
| CN1CCN(c2nc3cc(N4CCc5c(n(C)c6ccccc56)C4)ccc3o2)CC1 [Example 97] | 10 to 25 |
| CN1CCN(c2nc3cc(N4CCc5c([nH]c6ccccc56)C4)ccc3o2)CC1 [Example 98] | 25 to 50 |
| c1ccc2c3c([nH]c2c1)CN(c1ccc2oc(N4CCOCC4)nc2c1)CC3 [Example 99] | < 10 |
| Cn1c2c(c3ccccc31)CCN(c1ccc3oc(N4CCOCC4)nc3c1)C2 [Example 100] | < 10 |
| Cn1c2c(c3ccccc31)CCN(c1nc3cc(N4CCOCC4)ccc3o1)C2 [Example 101] | < 10 |
| c1ccc2c3c([nH]c2c1)CN(c1nc2ccc(N4CCOCC4)cc2o1)CC3 [Example 102] | < 10 |
| Fc1ccc2c3c([nH]c2c1)CN(c1ccc2oc(N4CCOCC4)nc2c1)CC3 [Example 103] | < 10 |
| Cn1c2c(c3ccccc31)CCN(c1ccc(C#N)nc1)C2 [Example 112] | < 10 |
| N#Cc1ccc(N2CCc3c([nH]c4ccccc34)C2)cn1 [Example 113] | < 10 |
| COC1CCN(c2ccc(N3CCc4c([nH]c5ccccc45)C3)nn2)CC1 [Example 117] | < 10 |
| C[C@H]1CN(c2ccc(N3CCc4c([nH]c5ccccc45)C3)nn2)CCO1 [Example 118] | < 10 |
| C[C@@H]1CN(c2ccc(N3CCc4c([nH]c5ccccc45)C3)nn2)CCO1 [Example 119] | < 10 |
| C[C@@H]1CN(c2ccc(N3CCc4c([nH]c5ccccc45)C3)nn2)C[C@H](C)O1 [Example 120] | < 10 |
| Fc1ccc2[nH]c3c(c2c1)CCN(c1ccc2ccc(N4CCOCC4)nc2c1)C3 [Example 121] | 10 to 25 |
| Fc1ccc2[nH]c3c(c2c1)CCN(c1ccc2nc(N4CCOCC4)ccc2c1)C3 [Example 122] | < 10 |
